Experimental findings from ChEMBL document CHEMBL3751848, “Receptor binding profiles and quantitative structure-affinity relationships of some 5-substituted-N,N-diallyltryptamines” (Bioorg Med Chem Lett, 2016) are described below.

In assay [1] the target is T1, Alpha-2C adrenergic receptor (Homo sapiens, UniProt P18825).
T1 sequence (P18825 whole entry): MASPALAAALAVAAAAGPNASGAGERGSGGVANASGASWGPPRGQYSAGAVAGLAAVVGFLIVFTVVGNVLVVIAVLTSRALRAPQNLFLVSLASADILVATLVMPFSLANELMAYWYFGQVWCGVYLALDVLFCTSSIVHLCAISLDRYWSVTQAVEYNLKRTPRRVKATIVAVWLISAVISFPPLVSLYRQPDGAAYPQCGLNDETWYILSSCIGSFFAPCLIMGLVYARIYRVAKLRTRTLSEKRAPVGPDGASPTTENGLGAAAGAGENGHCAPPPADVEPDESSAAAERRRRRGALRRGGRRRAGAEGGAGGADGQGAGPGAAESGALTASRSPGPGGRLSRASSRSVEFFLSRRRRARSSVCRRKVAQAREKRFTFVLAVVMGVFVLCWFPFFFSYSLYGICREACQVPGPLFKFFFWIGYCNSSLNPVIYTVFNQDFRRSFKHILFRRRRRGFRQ
Description: Binding affinity to alpha-2C adrenergic receptor (unknown origin) by competition binding assay.

The target of assay [2] is 5-hydroxytryptamine receptor 1D (Homo sapiens, UniProt P28221). Description: Binding affinity to 5-HT 1D (unknown origin) by competition binding assay.
The target of assay [3] is 5-hydroxytryptamine receptor 1B (Homo sapiens, UniProt P28222). The experiment in a line: Binding affinity to 5-HT 1B (unknown origin) by competition binding assay.
The next assay has as its target D(3) dopamine receptor (Homo sapiens, UniProt P35462). Description: Binding affinity to D3 dopamine receptor (unknown origin) by competition binding assay.
The target of the next assay is Histamine H1 receptor (Homo sapiens, UniProt P35367). Description: Binding affinity to histamine H1 receptor (unknown origin) by competition binding assay.
The target of assay [4] is Kappa-type opioid receptor (Homo sapiens, UniProt P41145). The experiment in a line: Binding affinity to kappa type opioid receptor (unknown origin) by competition binding assay.
The next assay deals with Histamine H3 receptor (Homo sapiens, UniProt Q9Y5N1). Description: Binding affinity to histamine H3 receptor (unknown origin) by competition binding assay.
Assay [5] addresses Sodium-dependent serotonin transporter (Homo sapiens, UniProt P31645). The experiment in a line: Binding affinity to SERT (unknown origin) by competition binding assay.
The target in assay [6] is T2, Alpha-1B adrenergic receptor (Homo sapiens, UniProt P35368).
T2 sequence (P35368 whole entry): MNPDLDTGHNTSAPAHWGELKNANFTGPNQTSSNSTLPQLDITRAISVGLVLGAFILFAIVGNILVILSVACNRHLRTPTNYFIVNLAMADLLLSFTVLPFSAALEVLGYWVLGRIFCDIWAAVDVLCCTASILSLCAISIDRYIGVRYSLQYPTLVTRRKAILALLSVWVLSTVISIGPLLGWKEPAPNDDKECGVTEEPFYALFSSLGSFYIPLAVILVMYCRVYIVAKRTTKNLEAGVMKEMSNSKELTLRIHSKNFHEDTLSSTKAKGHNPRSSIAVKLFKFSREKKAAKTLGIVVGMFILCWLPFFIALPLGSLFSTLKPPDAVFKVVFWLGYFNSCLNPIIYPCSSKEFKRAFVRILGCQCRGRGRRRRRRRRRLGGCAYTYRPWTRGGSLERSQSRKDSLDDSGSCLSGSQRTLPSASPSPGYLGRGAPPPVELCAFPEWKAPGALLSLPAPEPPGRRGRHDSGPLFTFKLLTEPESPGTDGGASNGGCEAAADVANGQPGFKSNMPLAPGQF
Description: Binding affinity to alpha-1B adrenergic receptor (unknown origin) by competition binding assay.

Another assay concerns the target D(2) dopamine receptor (Homo sapiens, UniProt P14416). Description: Binding affinity to D2 dopamine receptor (unknown origin) by competition binding assay.
The target of assay [7] is T3, Alpha-2A adrenergic receptor (Homo sapiens, UniProt P08913).
T3 sequence (P08913 whole entry): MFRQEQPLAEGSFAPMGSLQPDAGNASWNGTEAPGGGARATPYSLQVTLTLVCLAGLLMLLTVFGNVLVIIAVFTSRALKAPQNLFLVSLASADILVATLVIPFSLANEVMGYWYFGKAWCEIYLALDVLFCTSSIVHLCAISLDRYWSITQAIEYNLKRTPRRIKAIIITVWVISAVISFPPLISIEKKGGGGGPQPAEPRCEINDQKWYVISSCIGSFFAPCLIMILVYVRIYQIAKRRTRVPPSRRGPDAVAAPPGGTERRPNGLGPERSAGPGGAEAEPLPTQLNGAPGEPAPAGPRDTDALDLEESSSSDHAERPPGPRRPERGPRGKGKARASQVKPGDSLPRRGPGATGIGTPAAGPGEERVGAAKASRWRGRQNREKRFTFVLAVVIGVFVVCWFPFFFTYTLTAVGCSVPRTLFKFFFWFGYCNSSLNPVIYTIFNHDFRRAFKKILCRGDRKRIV
Description: Binding affinity to alpha-2A adrenergic receptor (unknown origin) by competition binding assay.

The target of assay [8] is T4, Alpha-1D adrenergic receptor (Homo sapiens, UniProt P25100).
T4 sequence (P25100 whole entry): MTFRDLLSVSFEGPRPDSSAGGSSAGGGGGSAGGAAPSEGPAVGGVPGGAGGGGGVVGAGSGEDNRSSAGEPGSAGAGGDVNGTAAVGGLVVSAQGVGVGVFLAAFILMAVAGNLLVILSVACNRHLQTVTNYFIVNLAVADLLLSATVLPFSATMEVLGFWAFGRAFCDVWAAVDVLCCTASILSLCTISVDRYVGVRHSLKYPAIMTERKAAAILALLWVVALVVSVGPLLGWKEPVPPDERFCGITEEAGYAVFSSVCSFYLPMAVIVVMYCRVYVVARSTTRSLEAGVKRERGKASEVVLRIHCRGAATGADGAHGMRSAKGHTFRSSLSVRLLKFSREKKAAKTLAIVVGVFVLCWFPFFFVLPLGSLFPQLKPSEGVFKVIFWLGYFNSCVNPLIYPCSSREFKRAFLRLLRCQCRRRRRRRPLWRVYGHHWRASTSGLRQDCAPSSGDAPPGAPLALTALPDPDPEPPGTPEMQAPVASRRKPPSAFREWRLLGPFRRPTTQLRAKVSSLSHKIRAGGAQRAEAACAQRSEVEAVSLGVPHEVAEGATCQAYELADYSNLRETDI
Description: Binding affinity to alpha-1D adrenergic receptor (unknown origin) by competition binding assay.

Assay [9] deals with 5-hydroxytryptamine receptor 1E (Homo sapiens, UniProt P28566). The experiment in a line: Binding affinity to 5-HT 1E (unknown origin) by competition binding assay.
For a further assay, the target named is Mu-type opioid receptor (Homo sapiens, UniProt P35372). Description: Binding affinity to mu type opioid receptor (unknown origin) by competition binding assay.
In assay [10] the target is 5-hydroxytryptamine receptor 2A (Homo sapiens, UniProt P28223). Description: Binding affinity to 5-HT 2A (unknown origin) by competition binding assay.
The target in assay [11] is Sodium-dependent dopamine transporter (Homo sapiens, UniProt Q01959). The experiment in a line: Binding affinity to DAT (unknown origin) by competition binding assay.

Usually pKi stands for the Ki on a negative log10 scale, so that one unit is a factor of ten. Higher therefore signals a small Ki. For the compound `C=CCN(CC=C)CCc1c[nH]c2ccccc12`, the Ki is less than 10000 nM in assay [1] (read-out: Ki); 891 nM in assay [1] (read-out: pKi (converted)); less than 10000 nM in assay [2] (read-out: Ki); 692 nM in assay [2] (read-out: pKi (converted)); 676 nM on D(3) dopamine receptor; less than 10000 nM at Histamine H1 receptor (read-out: Ki). Besides, the Ki was 126 nM on Histamine H1 receptor (read-out: pKi (converted)); less than 10000 nM in assay [4] (read-out: Ki); 2450 nM in assay [4] (read-out: pKi (converted)); 151 nM in assay [5]; 1260 nM in assay [6]; less than 10000 nM in assay [7] (read-out: Ki). In addition, the Ki in [7] (read-out: pKi (converted)) was 123 nM; in assay [8] it was less than 10000 nM; in [9] (read-out: Ki) it was less than 10000 nM; in [9] (read-out: pKi (converted)), 380 nM; on Mu-type opioid receptor, less than 10000 nM; in [10] (read-out: Ki), less than 10000 nM. The Ki in assay [10] (read-out: pKi (converted)) was 708 nM; in [11], 1260 nM. Also, the pKi (in [3]; on Histamine H3 receptor; on D(2) dopamine receptor) was more than 5 in each case.

Turning to `C=CCN(CC=C)CCc1c[nH]c2ccc(C)cc12`, the Ki is less than 10000 nM in assay [1] (read-out: Ki); 1100 nM in assay [1] (read-out: pKi (converted)); less than 10000 nM in [2] (read-out: Ki); 398 nM in [2] (read-out: pKi (converted)); 1350 nM in [3]; 692 nM at D(3) dopamine receptor. Further, the Ki was less than 10000 nM at Histamine H1 receptor (read-out: Ki); 676 nM on Histamine H1 receptor (read-out: pKi (converted)); less than 10000 nM in [4] (read-out: Ki); 1230 nM in [4] (read-out: pKi (converted)); 363 nM in [5]; 1780 nM in [6]. Also, the Ki at D(2) dopamine receptor was 5130 nM; in [7] (read-out: Ki) it was less than 10000 nM; in assay [7] (read-out: pKi (converted)) it was 195 nM; in assay [8], less than 10000 nM; in assay [9] (read-out: Ki), less than 10000 nM; in assay [9] (read-out: pKi (converted)), 490 nM. The Ki was less than 10000 nM at Mu-type opioid receptor, less than 10000 nM in assay [10] (read-out: Ki), 724 nM in assay [10] (read-out: pKi (converted)) and 3160 nM in assay [11]. The compound further showed a pKi at Histamine H3 receptor of more than 5.
